Source: patent US20250206761A1, “HALOINDOLE MACROCYCLIC COMPOUNDS FOR THE TREATMENT OF CANCER” (Hoffmann-La Roche Inc., priority 2022, published 2025)

Columns and labels:
[1] = tested on: NCI-H358 (ATCC-CRL5807) cells; assay: Cell viability assay, G12C (NCI-H358); type: cell-based, human; conditions: Homo sapiens; KRAS cell viability, NCI-H358, 72 hrs, Cell Counting Kit-8
How it was run: (§1)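 Cells were seeded at 5,000 cells/well (NCI-H358) or 2,000 cells/well (AGS, SW620), incubated overnight, then treated with compounds in 0.5% DMSO final for 72 hrs. CCK-8 was added and OD450 minus OD650 read after 2 hrs; IC50 came from a 4-parameter sigmoidal fit.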

[2] = tested on: AGS (ATCC-CRL-1739) cells; assay: Cell viability assay, G12D (AGS); type: cell-based, human; conditions: Homo sapiens, KRAS cell viability, 72 hrs, Cell Counting Kit-8
How it was run: as §1

SW620 (ATCC-CCL-227) = assay: Cell viability assay, G12V (SW620); type: cell-based, human; conditions: Homo sapiens, SW-620; KRAS cell viability, SW620, 72 hrs, Cell Counting Kit-8
How it was run: as §1

KRAS G12C-BRAF complex [3] = target: T1, KRAS G12C-BRAF complex (Homo sapiens (Human), UniProt P01116+P62937, G12C); assay: KRAS G12C-BRAF NanoBit assay; type: cell-based; conditions: HEK293 cells, 3 hours of incubation
T1 sequence (P01116-2 other isoform, or with tags, fused parts or gaps G12C): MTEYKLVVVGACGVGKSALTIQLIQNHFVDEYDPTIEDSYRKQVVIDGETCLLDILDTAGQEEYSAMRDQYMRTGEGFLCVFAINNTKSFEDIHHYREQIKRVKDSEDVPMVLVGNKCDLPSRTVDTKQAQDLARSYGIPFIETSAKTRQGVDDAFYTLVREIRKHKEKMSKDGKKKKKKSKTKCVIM
T1 sequence (P62937 whole entry): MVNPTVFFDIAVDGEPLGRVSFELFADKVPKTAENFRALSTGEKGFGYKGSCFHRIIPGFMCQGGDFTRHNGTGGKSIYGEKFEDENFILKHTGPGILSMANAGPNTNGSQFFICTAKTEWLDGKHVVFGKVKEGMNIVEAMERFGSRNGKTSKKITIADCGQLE
Procedure: This assay is to measure the ability of tested compounds in disruption of the KRAS G12C-BRAF complex at the cellular level, we established the NanoBit cellular assay in mammalian HEK293 (ATCC) cells.
HEK293 cells were grown and maintained using DMEM medium (Thermo Fisher Scientific) with 10% fetal bovine serum and 1% penicillin/streptomycin. Both KRAS G12C and BRAF RBD were cloned into the NanoBit vectors ([…] vectors system, Promega) with the orientations SnmBit-KRAS G12C and BRAF RBD-LgBit, respectively, and co-transfected into HEK293 cells. Cells were then selected with 100 μg/mL Hygromycin B (10687010, Thermo Fisher) and Blasticidin (5 μg/mL) for 4 weeks to get the stable cell pool.
On the day of the assay, 75 nL of compound solution was presented in a 384-well assay plate as a 16-point 3-fold dilution starting from a final concentration of 30 μM in DMSO. Then cells were seeded at 10,000 cells/25 μL/well in a 384-well plate. After 3 hours of incubation, 6 μL of volume of Nano-Glo® Live Cell Substrate (Promega) was added into each well. Monitor luminescence using ultra384 model in Envision at 20 minutes. Compounds that facilitate disruption of the KRAS G12C-BRAF RBD complex were identified as those eliciting a decrease of luminescence relative to DMSO control wells.

[4] = tested on: phosphorylation of ERK, KRAS G12C in NCJ-H358 cells; assay: pERK inhibition assay, KRAS G12C; type: cell-based, human; conditions: 4 hours
How it was run: (§2)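 ERK phosphorylation is measured after 4 h of compound exposure in attached cells, using a colorimetric immunoassay on fixed, permeabilized monolayers. IC50 is derived by 4-parameter sigmoidal fitting.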

[5] = tested on: phosphorylation of ERK, KRAS G12D in AGS cells; assay: pERK inhibition assay, KRAS G12D; type: cell-based, human; conditions: 4 hours
How it was run: as §2

[6] = tested on: phosphorylation of ERK, KRAS G12V in SW620; assay: pERK inhibition assay, KRAS G12V; type: cell-based, human
How it was run: as §2

KRAS G12C-BRAF complex [7] = target: T1, KRAS G12C-BRAF complex; assay: KRAS-BRAF with CYPA (500 nM) interaction assay (TR-FRET), G12C; type: biochemical
[8] = target: KRAS G12D binding to BRAF (Homo sapiens (Human), UniProt P01116+P62937, G12D); assay: KRAS-BRAF with CYPA (500 nM) interaction assay (TR-FRET), G12D; type: biochemical
Chain of KRAS G12D binding to BRAF (P01116-2 other isoform, or with tags, fused parts or gaps G12D): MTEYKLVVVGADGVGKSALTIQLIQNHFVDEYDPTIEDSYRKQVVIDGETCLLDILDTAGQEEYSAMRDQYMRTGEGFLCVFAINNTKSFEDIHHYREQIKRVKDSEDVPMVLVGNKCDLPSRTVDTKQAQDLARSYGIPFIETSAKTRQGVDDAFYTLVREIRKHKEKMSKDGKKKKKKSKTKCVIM
Chain of KRAS G12D binding to BRAF (P62937 whole entry): as the sequence (P62937 whole entry) above

[9] = target: KRAS G12V binding to BRAF (Homo sapiens (Human), UniProt P01116+P62937, G12V); assay: KRAS-BRAF with CYPA (500 nM) interaction assay (TR-FRET), G12V; type: biochemical
Chain of KRAS G12V binding to BRAF (P01116-2 other isoform, or with tags, fused parts or gaps G12V): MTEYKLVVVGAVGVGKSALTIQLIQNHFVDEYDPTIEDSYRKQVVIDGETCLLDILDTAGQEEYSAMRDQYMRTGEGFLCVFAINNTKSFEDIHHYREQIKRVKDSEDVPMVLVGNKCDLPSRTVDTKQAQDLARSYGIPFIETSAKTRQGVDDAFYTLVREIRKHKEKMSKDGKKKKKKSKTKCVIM
Chain of KRAS G12V binding to BRAF (P62937 whole entry): as the sequence (P62937 whole entry) above
How it was run: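 A TR-FRET assay measured how compound, in the presence of CYPA, disrupts binding of GMPPNP-loaded 6His-KRAS G12V to BRAF. The buffer contained 25 mM HEPES PH=7.4, 0.002% Tween20, 0.1% BSA, 100 mM NaCl, 5 mM MgCl2 and 10 μM GMPPNP. Compounds ran as a 16-point 3-fold dilution series from 10 μM for 3 hours.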

[10] = Homo sapiens, SW-620, SW620, 4 hours

| Structure (SMILES) | IC50 [1] [nM] | IC50 [2] [nM] | IC50 (SW620 (ATCC-CCL-227)) [nM] | IC50 (KRAS G12C-BRAF complex [3]) [nM] | IC50 ([4]; Homo sapiens) [nM] | IC50 ([5]; Homo sapiens) [nM] | IC50 [6, 10] [nM] | IC50 (KRAS G12C-BRAF complex [7]) [nM] | IC50 [8] [nM] | IC50 [9] [nM] | IC50 [4] [nM] | IC50 [5] [nM] | IC50 ([6]; SW620, 4 hours) [nM] |
| --- | --- | --- | --- | --- | --- | --- | --- | --- | --- | --- | --- | --- | --- |
| CO[C@@H](C)c1ncc(N2CCN(C)CC2)cc1-c1c2c3cc(c(F)cc3n1CC(F)(F)F)-c1csc(n1)C[C@H](NC(=O)[C@@H](COC1CN(C(=O)[C@H](F)Cl)C1)C(C)C)C(=O)N1CCC[C@H](N1)C(=O)OCC(C)(C)C2 (atropisomer, axis not shown; (M)) [Example 13, (2R)-2-[[1-[(2R)-2-chloro-2-fluoro-acetyl]azetidin-3-yl]oxymethyl]-N-[(7S,13S)-24-fluoro-(20M)-20-[2-[(1S)-1-methoxyethyl]-5-(4-methylpiperazin-1-yl)-3-pyridyl]-17,17-dimethyl-8,14-dioxo-21-(2,2,2-trifluoroethyl)-15-oxa-4-thia-9,21,27,28-tetrazapentacyclo-[17.5.2.1^2,5.1^9,13.0^22,26]octacosa-1(25),2,5(28),19,22(26),23-hexaen-7-yl]-3-methyl-butanamide] | 2 | 2390 | 23 | 27 |  |  |  |  |  |  |  |  |  |
| CO[C@@H](C)c1ncc(N2CCN(CC(F)(F)F)CC2)cc1-c1c2c3cc(c(F)cc3n1CC(F)(F)F)-c1csc(n1)C[C@H](NC(=O)[C@H](C(C)C)N1CCC3(CN(C(=O)[C@H](F)Cl)C3)C1=O)C(=O)N1CCC[C@H](N1)C(=O)OCC(C)(C)C2 (atropisomer, axis not shown; (M)) [Example 46, (2S)-2-[2-[(2R)-2-chloro-2-fluoro-acetyl]-5-oxo-2,6-diazaspiro[3.4]octan-6-yl]-N-[(7S,13S)-24-fluoro-(20M)-20-[2-[(1S)-1-methoxyethyl]-5-[4-(2,2,2-trifluoroethyl)piperazin-1-yl]-3-pyridyl]-17,17-dimethyl-8,14-dioxo-21-(2,2,2-trifluoroethyl)-15-oxa-4-thia-9,21,27,28-tetrazapentacyclo[17.5.2.1^2,5.1^9,13.0^22,26]octacosa-1(25),2,5(28),19,22(26),23-hexaen-7-yl]-3-methyl-butanamide] | 3 | 300 | 168 |  | 9 | 299 | 627 | 129 | 1060 | 1230 |  |  |  |
| CCn1c(-c2cc(N3CCN(C)CC3)cnc2[C@H](C)OC)c2c3cc(c(F)cc31)-c1csc(n1)C[C@H](NC(=O)[C@H](C(C)C)N1CCC[C@]3(CCN(C(=O)[C@@H](F)Cl)C3)C1=O)C(=O)N1CCC[C@H](N1)C(=O)OCC(C)(C)C2 [Example 22, (2S)-2-[(5R)-2-[(2S)-2-chloro-2-fluoro-acetyl]-6-oxo-2,7-diazaspiro[4.5]decan-7-yl]-N-[(7S,13S)-21-ethyl-24-fluoro-(20M)-20-[2-[(1S)-1-methoxyethyl]-5-(4-methylpiperazin-1-yl)-3-pyridyl]-17,17-dimethyl-8,14-dioxo-15-oxa-4-thia-9,21,27,28-tetrazapentacyclo[17.5.2.1^2,5.1^9,13.0^22,26]octacosa-1(25),2,5(28),19,22(26),23-hexaen-7-yl]-3-methyl-butanamide] |  |  |  | 209 |  |  |  | 199 | > 10000 | > 10000 | 53 | 1060 | 1020 |

Continued, in another order:

| IC50 [1] [nM] | IC50 [2] [nM] | IC50 (SW620 (ATCC-CCL-227)) [nM] | IC50 (KRAS G12C-BRAF complex [3]) [nM] | IC50 ([4]; Homo sapiens) [nM] | IC50 ([5]; Homo sapiens) [nM] | IC50 [6, 10] [nM] | Structure (SMILES) | IC50 (KRAS G12C-BRAF complex [7]) [nM] | IC50 [8] [nM] | IC50 [9] [nM] | IC50 [4] [nM] | IC50 [5] [nM] | IC50 ([6]; SW620, 4 hours) [nM] |
| --- | --- | --- | --- | --- | --- | --- | --- | --- | --- | --- | --- | --- | --- |
|  |  |  | 106 | 33 | 170 | 78 | CO[C@@H](C)c1ncc(N2CCN(C)CC2)cc1-c1c2c3cc(c(F)cc3n1CC(F)(F)F)-c1csc(n1)C[C@H](NC(=O)[C@H](COC1CN(C(=O)[C@H](F)Cl)C1)C(C)C)C(=O)N1CCC[C@H](N1)C(=O)OCC(C)(C)C2 (atropisomer, axis not shown; (M)) [Example 14, (2S)-2-[[1-[(2R)-2-chloro-2-fluoro-acetyl]azetidin-3-yl]oxymethyl]-N-[(7S,13S)-24-fluoro-(20M)-20-[2-[(1S)-1-methoxyethyl]-5-(4-methylpiperazin-1-yl)-3-pyridyl]-17,17-dimethyl-8,14-dioxo-21-(2,2,2-trifluoroethyl)-15-oxa-4-thia-9,21,27,28-tetrazapentacyclo[17.5.2.1^2,5.1^9,13.0^22,26]octacosa-1(25),2,5(28),19,22(26),23-hexaen-7-yl]-3-methyl-butanamide] |  |  |  |  |  |  |
| < 1 | 1230 | 447 | 11000 | 1 | 12 | 45 | CCn1c(-c2cc(N3CCN(C)CC3)cnc2[C@H](C)OC)c2c3cc(c(F)cc31)-c1csc(n1)C[C@H](NC(=O)[C@H](C(C)C)N1CCC3(CN(C(=O)[C@H](F)Cl)C3)C1=O)C(=O)N1CCC[C@H](N1)C(=O)OCC(C)(C)C2 (atropisomer, axis not shown; (M)) [Example 29, (2S)-2-[2-[(2R)-2-chloro-2-fluoro-acetyl]-5-oxo-2,6-diazaspiro[3.4]octan-6-yl]-N-[(7S,13S)-21-ethyl-24-fluoro-(20M)-20-[2-[(1S)-1-methoxyethyl]-5-(4-methylpiperazin-1-yl)-3-pyridyl]-17,17-dimethyl-8,14-dioxo-15-oxa-4-thia-9,21,27,28-tetrazapentacyclo[17.5.2.1^2,5.1^9,13.0^22,26]octacosa-1(25),2,5(28),19,22(26),23-hexaen-7-yl]-3-methyl-butanamide] |  |  |  |  |  |  |
| 3 | 1300 | 59 | 23 | 6 | 57 | 33 | CO[C@@H](C)c1ncc(N2CCOCC2)cc1-c1c2c3cc(c(F)cc3n1CC(F)(F)F)-c1csc(n1)C[C@H](NC(=O)[C@H](C(C)C)N1CC[C@]3(CCN(C(=O)[C@H](F)Cl)C3)C1=O)C(=O)N1CCC[C@H](N1)C(=O)OCC(C)(C)C2 (atropisomer, axis not shown; (M)) [Example 57, (2S)-2-[(5S)-7-[(2R)-2-chloro-2-fluoro-acetyl]-1-oxo-2,7-diazaspiro[4.4]nonan-2-yl]-N-[(7S,13S)-24-fluoro-(20M)-20-[2-[(1S)-1-methoxyethyl]-5-morpholino-3-pyridyl]-17,17-dimethyl-8,14-dioxo-21-(2,2,2-trifluoroethyl)-15-oxa-4-thia-9,21,27,28-tetrazapentacyclo[17.5.2.1^2,5.1^9,13.0^22,26]octacosa-1(25),2,5(28),19,22(26),23-hexaen-7-yl]-3-methyl-butanamide] |  |  |  |  |  |  |
| 5 | 1500 | 130 | 54 | 12 | 124 | 41 | CO[C@@H](C)c1ncc(N2CCOCC2)cc1-c1c2c3cc(c(F)cc3n1CC(F)(F)F)-c1csc(n1)C[C@H](NC(=O)[C@H](C(C)C)N1CCC3(CN(C(=O)[C@H](F)Cl)C3)C1=O)C(=O)N1CCC[C@H](N1)C(=O)OCC(C)(C)C2 (atropisomer, axis not shown; (M)) [Example 58, (2S)-2-[2-[(2R)-2-chloro-2-fluoro-acetyl]-5-oxo-2,6-diazaspiro[3.4]octan-6-yl]-N-[(7S,13S)-24-fluoro-(20M)-20-[2-[(1S)-1-methoxyethyl]-5-morpholino-3-pyridyl]-17,17-dimethyl-8,14-dioxo-21-(2,2,2-trifluoroethyl)-15-oxa-4-thia-9,21,27,28-tetrazapentacyclo[17.5.2.1^2,5.1^9,13.0^22,26]octacosa-1(25),2,5(28),19,22(26),23-hexaen-7-yl]-3-methyl-butanamide] |  |  |  |  |  |  |
